Here are results for six compounds from article PMC9541843, “N‐terminal alterations turn the gut hormone GLP‐2 into an antagonist with gradual loss of GLP‐2 receptor selectivity towards more GLP‐1 receptor interaction” (British Journal of Pharmacology, 2022).

Like-named read-outs stand apart in the source and are kept apart here. Peptide text beside a SMILES is read from it. * marks the point of attachment. C16 diacid = O=C(O)CCCCCCCCCCCCCCC(=O)*

Assay [1] has as its target T1, human GLP‐2R (Homo sapiens, UniProt O95838).
T1 sequence (O95838 1-553): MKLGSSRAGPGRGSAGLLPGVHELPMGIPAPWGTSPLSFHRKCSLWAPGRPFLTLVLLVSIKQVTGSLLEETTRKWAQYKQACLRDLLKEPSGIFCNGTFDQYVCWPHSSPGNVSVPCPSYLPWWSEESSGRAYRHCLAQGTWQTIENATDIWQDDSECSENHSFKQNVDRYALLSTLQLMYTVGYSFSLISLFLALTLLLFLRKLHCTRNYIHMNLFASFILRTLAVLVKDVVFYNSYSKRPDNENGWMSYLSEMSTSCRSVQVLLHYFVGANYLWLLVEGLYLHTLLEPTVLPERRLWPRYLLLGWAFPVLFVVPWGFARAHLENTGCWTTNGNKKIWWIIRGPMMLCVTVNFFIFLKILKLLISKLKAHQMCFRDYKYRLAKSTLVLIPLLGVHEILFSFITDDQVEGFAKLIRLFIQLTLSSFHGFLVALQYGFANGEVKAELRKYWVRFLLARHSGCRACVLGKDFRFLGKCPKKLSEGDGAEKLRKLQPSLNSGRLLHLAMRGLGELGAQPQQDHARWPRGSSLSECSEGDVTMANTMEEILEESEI
As to the kind of experiment: cAMP accumulation, agonism (HitHunter cAMP assay). The settings on record: for Emax: COS-7, read-out: cAMP activation Emax ± SEM.

The target in assay [2] is T1, human GLP‐2R. Put plainly: cAMP accumulation, inhibition of GLP‐2‐induced activation. The note with it: for Inhibition of GLP‐2‐induced cAMP at the human GLP‐2R: at 1 μM peptide (highest tested concentration), COS‐7 cells. (In general: Changes in cAMP serve as a functional read-out for many G protein-coupled receptors.)
The next assay concerns the target human GLP‐1R (Homo sapiens, UniProt P43220). As to the kind of experiment: cAMP accumulation, inhibition of GLP‐1‐mediated response (selectivity). The note with it: for inhibition at 1 µM: COS-7, read-out: Inhibition of GLP‐1‐mediated cAMP response at the human GLP‐1R.
Assay [3] has as its target T1, human GLP‐2R. Put plainly: cell-based. The settings on record: SEM.
Experimental: After incubation, the cells were washed twice in 400 μl per well ice‐cold binding buffer and lysed using 500 μl per well of 200 mM NaOH with 1% SDS for 30 min. The samples were counted using the Wizard Gamma Counter (PerkinElmer, Waltham, MA).
Assay [4] deals with T1, human GLP‐2R. As to the kind of experiment: Schild plot analysis of cAMP activation curve of GLP‐2. In kind it is cell-based. Set-up: host or cells: COS-7 (transient, calcium phosphate). The settings on record: COS‐7 cells, n = 5 in duplicate, read-out: Ki from Schild plot (pA2) (converted). On the procedure: Statistical significance was accepted at P < 0.05.
We used a Schild plot approach, where we examined their ability to right‐shift the cAMP activation curve of native GLP‐2 (Figure 4a–d). For GLP‐2(2‐33), GLP‐(3‐33) and GLP‐2(4‐33), all having intrinsic activity, the Schild plot analysis was based on an equieffective DR (the concentrations at 60% of Emax). For GLP‐2(3‐33)[D3A], with no intrinsic activity, the Schild plot analysis was conducted based on the shift in the EC50 values for GLP‐2 with and without GLP‐2(3‐33)[D3A] as previously described (Sparre‐Ulrich et al., [2017]).

human GLP‐1R, sequence (P43220 24-463): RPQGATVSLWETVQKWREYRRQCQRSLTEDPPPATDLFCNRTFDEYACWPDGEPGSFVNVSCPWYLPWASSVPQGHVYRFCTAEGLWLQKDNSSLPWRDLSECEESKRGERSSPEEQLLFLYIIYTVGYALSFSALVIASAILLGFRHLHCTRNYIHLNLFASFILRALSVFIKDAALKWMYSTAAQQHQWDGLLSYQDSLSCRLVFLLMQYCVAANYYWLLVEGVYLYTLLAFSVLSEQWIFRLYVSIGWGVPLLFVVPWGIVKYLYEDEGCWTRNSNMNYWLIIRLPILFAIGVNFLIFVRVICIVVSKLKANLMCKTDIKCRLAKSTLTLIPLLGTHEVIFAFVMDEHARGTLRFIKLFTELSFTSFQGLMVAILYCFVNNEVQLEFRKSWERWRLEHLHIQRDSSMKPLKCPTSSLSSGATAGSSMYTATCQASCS

Broadly, the Emax is the maximal effect, on the per cent scale that the assay sets. For orientation: IC50 means the concentration needed to halve the response being measured. Read a low IC50 as greater potency. As usually defined, the inhibition is the percentage by which the read-out fell short of the control. Regarding `CC[C@H](C)[C@H](NC(=O)[C@H](Cc1ccccc1)NC(=O)[C@H](CC(=O)O)NC(=O)[C@H](CCCNC(=N)N)NC(=O)[C@H](C)NC(=O)[C@H](C)NC(=O)[C@H](CC(C)C)NC(=O)[C@H](CC(N)=O)NC(=O)[C@H](CC(=O)O)NC(=O)[C@H](CC(C)C)NC(=O)[C@@H](NC(=O)[C@@H](NC(=O)[C@H](CC(N)=O)NC(=O)[C@H](CCSC)NC(=O)[C@H](CCC(=O)O)NC(=O)[C@H](CC(=O)O)NC(=O)[C@H](CO)NC(=O)[C@H](Cc1ccccc1)NC(=O)[C@H](CO)NC(=O)CNC(=O)[C@H](CC(=O)O)NC(=O)CCCCCCCCCCCCCCC(=O)O)[C@@H](C)O)[C@@H](C)CC)C(=O)N[C@@H](CC(N)=O)C(=O)N[C@@H](Cc1c[nH]c2ccccc12)C(=O)N[C@@H](CC(C)C)C(=O)N[C@H](C(=O)N[C@@H](CCC(N)=O)C(=O)N[C@H](C(=O)N[C@@H](CCCCN)C(=O)N[C@H](C(=O)N[C@H](C(=O)N[C@@H](CC(=O)O)C(=O)O)[C@@H](C)O)[C@@H](C)CC)[C@@H](C)O)[C@@H](C)CC` [GLP‐2(3‐33)(C16‐diacid/3)] ({C16 diacid}-DGSFSDEMNTILDNLAARDFINWLIQTKITD-OH), the Emax at human GLP‐2R [1] was determined as 25%. Also, on human GLP‐2R [2], the IC50 is 7.9 nM and the “Inhibition of GLP‐2‐induced cAMP at the human GLP‐2R” value is listed as 87%. On human GLP‐1R, the IC50 stood at 50 nM and the inhibition at 1 µM was 91%.
Consider `CC[C@H](C)[C@H](NC(=O)[C@H](Cc1ccccc1)NC(=O)[C@H](CC(=O)O)NC(=O)[C@H](CCCNC(=N)N)NC(=O)[C@H](C)NC(=O)[C@H](C)NC(=O)[C@H](CC(C)C)NC(=O)[C@H](CC(N)=O)NC(=O)[C@H](CC(=O)O)NC(=O)[C@H](CC(C)C)NC(=O)[C@@H](NC(=O)[C@@H](NC(=O)[C@H](CC(N)=O)NC(=O)[C@H](CCSC)NC(=O)[C@H](CCC(=O)O)NC(=O)[C@H](CC(=O)O)NC(=O)[C@H](CO)NC(=O)[C@H](Cc1ccccc1)NC(=O)[C@H](CO)NC(=O)CNC(=O)[C@@H](N)CC(=O)O)[C@@H](C)O)[C@@H](C)CC)C(=O)N[C@@H](CC(N)=O)C(=O)N[C@@H](Cc1c[nH]c2ccccc12)C(=O)N[C@@H](CC(C)C)C(=O)N[C@H](C(=O)N[C@@H](CCC(N)=O)C(=O)N[C@H](C(=O)N[C@@H](CCCCN)C(=O)N[C@H](C(=O)N[C@H](C(=O)N[C@@H](CC(=O)O)C(=O)O)[C@@H](C)O)[C@@H](C)CC)[C@@H](C)O)[C@@H](C)CC` [GLP‐2(3‐33)] (H-DGSFSDEMNTILDNLAARDFINWLIQTKITD-OH), for which, at human GLP‐2R [1] (SEM), the Emax was determined as 21 ± 2.2%. Besides, the inhibition at 1 µM on human GLP‐1R was in the range of 30 to 38%.
What is called EC50 is the concentration that produces a half-maximal response. A higher EC50 goes with a less potent agent. Broadly, the Ki is a measure of affinity in units of concentration, obtained from inhibition or displacement. Turning to `CC[C@H](C)[C@H](NC(=O)[C@H](Cc1ccccc1)NC(=O)[C@H](CC(=O)O)NC(=O)[C@H](CCCN=C(N)N)NC(=O)[C@H](C)NC(=O)[C@H](C)NC(=O)[C@H](CC(C)C)NC(=O)[C@H](CC(N)=O)NC(=O)[C@H](CC(=O)O)NC(=O)[C@H](CC(C)C)NC(=O)[C@@H](NC(=O)[C@@H](NC(=O)[C@H](CC(N)=O)NC(=O)[C@H](CCSC)NC(=O)[C@H](CCC(=O)O)NC(=O)[C@H](CC(=O)O)NC(=O)[C@H](CO)NC(=O)[C@H](Cc1ccccc1)NC(=O)[C@H](CO)NC(=O)CNC(=O)[C@@H](N)CC(=O)O)[C@@H](C)O)[C@@H](C)CC)C(=O)N[C@@H](CC(N)=O)C(=O)N[C@@H](Cc1c[nH]c2ccccc12)C(=O)N[C@@H](CC(C)C)C(=O)N[C@H](C(=O)N[C@@H](CCC(N)=O)C(=O)N[C@H](C(=O)N[C@@H](CCCCN)C(=O)N[C@H](C(=O)N[C@H](C(=O)N[C@@H](CC(=O)O)C(=O)O)[C@@H](C)O)[C@@H](C)CC)[C@@H](C)O)[C@@H](C)CC` [GLP‐2(3‐33)] (H-DGSFSDEMNTILDNLAARDFINWLIQTKITD-OH), the IC50 is 7.94 nM at human GLP‐2R [3] and 204 nM on human GLP‐2R [2]. Also, the EC50 on human GLP‐2R [1] (SEM) was 25.1 nM. Moreover, at human GLP‐2R [4], the Ki was 126 nM.
Take `CC[C@H](C)[C@H](NC(=O)[C@H](Cc1ccccc1)NC(=O)[C@H](CC(=O)O)NC(=O)[C@H](CCCNC(=N)N)NC(=O)[C@H](C)NC(=O)[C@H](C)NC(=O)[C@H](CC(C)C)NC(=O)[C@H](CC(N)=O)NC(=O)[C@H](CC(=O)O)NC(=O)[C@H](CC(C)C)NC(=O)[C@@H](NC(=O)[C@@H](NC(=O)[C@H](CC(N)=O)NC(=O)[C@H](CCSC)NC(=O)[C@H](CCC(=O)O)NC(=O)[C@H](CC(=O)O)NC(=O)[C@H](CO)NC(=O)[C@H](Cc1ccccc1)NC(=O)[C@H](CO)NC(=O)CNC(=O)[C@H](C)N)[C@@H](C)O)[C@@H](C)CC)C(=O)N[C@@H](CC(N)=O)C(=O)N[C@@H](Cc1c[nH]c2ccccc12)C(=O)N[C@@H](CC(C)C)C(=O)N[C@H](C(=O)N[C@@H](CCC(N)=O)C(=O)N[C@H](C(=O)N[C@@H](CCCCN)C(=O)N[C@H](C(=O)N[C@H](C(=O)N[C@@H](CC(=O)O)C(=O)O)[C@@H](C)O)[C@@H](C)CC)[C@@H](C)O)[C@@H](C)CC` [GLP‐2(3‐33)[D3A]] (H-AGSFSDEMNTILDNLAARDFINWLIQTKITD-OH): on human GLP‐2R [4], the Ki is 40 nM. At human GLP‐2R [2], this compound gave an IC50 of 162 nM.
On to `CC[C@H](C)[C@H](NC(=O)[C@H](Cc1ccccc1)NC(=O)[C@H](CC(=O)O)NC(=O)[C@H](CCCNC(=N)N)NC(=O)[C@H](C)NC(=O)[C@H](C)NC(=O)[C@H](CC(C)C)NC(=O)[C@H](CCCCNC(=O)CCCCCCCCCCCCCCC(=O)O)NC(=O)[C@H](CC(=O)O)NC(=O)[C@H](CC(C)C)NC(=O)[C@@H](NC(=O)[C@@H](NC(=O)[C@H](CC(N)=O)NC(=O)[C@H](CCSC)NC(=O)[C@H](CCC(=O)O)NC(=O)[C@H](CC(=O)O)NC(=O)[C@H](CO)NC(=O)[C@H](Cc1ccccc1)NC(=O)[C@H](CO)NC(=O)CNC(=O)[C@@H](N)CC(=O)O)[C@@H](C)O)[C@@H](C)CC)C(=O)N[C@@H](CC(N)=O)C(=O)N[C@@H](Cc1c[nH]c2ccccc12)C(=O)N[C@@H](CC(C)C)C(=O)N[C@H](C(=O)N[C@@H](CCC(N)=O)C(=O)N[C@H](C(=O)N[C@@H](CCCCN)C(=O)N[C@H](C(=O)N[C@H](C(=O)N[C@@H](CC(=O)O)C(=O)O)[C@@H](C)O)[C@@H](C)CC)[C@@H](C)O)[C@@H](C)CC` [GLP‐2(3‐33)[N16K](C16‐diacid/16)] (H-DGSFSDEMNTILDK(C16 diacid)LAARDFINWLIQTKITD-OH), for which the inhibition at 1 µM at human GLP‐1R is 72%.
As for `CC[C@H](C)[C@H](NC(=O)[C@H](Cc1ccccc1)NC(=O)[C@H](CC(=O)O)NC(=O)[C@H](CCCNC(=N)N)NC(=O)[C@H](C)NC(=O)[C@H](C)NC(=O)[C@H](CC(C)C)NC(=O)[C@H](CC(N)=O)NC(=O)[C@H](CC(=O)O)NC(=O)[C@H](CC(C)C)NC(=O)[C@@H](NC(=O)[C@@H](NC(=O)[C@H](CC(N)=O)NC(=O)[C@H](CCSC)NC(=O)[C@H](CCC(=O)O)NC(=O)[C@H](CC(=O)O)NC(=O)[C@H](CO)NC(=O)[C@H](Cc1ccccc1)NC(=O)[C@H](CO)NC(=O)CCCCCCCCCCCCCCC(=O)O)[C@@H](C)O)[C@@H](C)CC)C(=O)N[C@@H](CC(N)=O)C(=O)N[C@@H](Cc1c[nH]c2ccccc12)C(=O)N[C@@H](CC(C)C)C(=O)N[C@H](C(=O)N[C@@H](CCC(N)=O)C(=O)N[C@H](C(=O)N[C@@H](CCCCN)C(=O)N[C@H](C(=O)N[C@H](C(=O)N[C@@H](CC(=O)O)C(=O)O)[C@@H](C)O)[C@@H](C)CC)[C@@H](C)O)[C@@H](C)CC` [GLP‐2(5‐33)(C16‐diacid/5)] ({C16 diacid}-SFSDEMNTILDNLAARDFINWLIQTKITD-OH), at human GLP‐2R [2], the IC50 amounted to 12.3 nM and the “Inhibition of GLP‐2‐induced cAMP at the human GLP‐2R” value stood at 93%. For the same compound, on human GLP‐1R, the IC50 was 40 nM and the inhibition at 1 µM was determined as 67%.
